This passage reports Kb results from patent publication US9586962B2, “Disubstituted octahydropyrrolo [3,4-C] pyrroles as orexin receptor modulators” (Janssen Pharmaceutica NV, priority 2011, dated 2017).

This assay concerns the target human orexin 2 receptor (Homo sapiens (Human), UniProt O43614). Briefly: Human orexin 2 receptor Ca2+ mobilization assay (FLIPR, PFSK cells, orexin B 100 nM). Particulars: modified Cheng-Prusoff correction, read-out: OR 2 Kb. The class given is cell-based. As for the experimental part:
Human Orexin 2 Receptor Ca^2+ Mobilization Assay
Cells were seeded on to 96-well Packard viewplates at a density of 50,000 cells/well and incubated overnight at 37° C., 5% CO2. The cells were dye-loaded with 4 μM Ca^2+ dye Fluo-3AM in serum-free DMEM/F-12 with 2.5 mM probenecid and incubated at 37° C., 5% CO2 for one hour. Cells were pre-incubated with compounds (diluted in DMEM/F-12) for 30 minutes before agonist (orexin B, 100 nM) stimulation. Ligand-induced Ca^2+ release was measured using a Fluorometric Imaging Plate Reader (FLIPR, Molecular Devices, Sunnyvale, Calif.). Functional responses were measured as peak fluorescence intensity minus basal. The concentration of agonist that produced a half-maximal response is represented by the EC50 value. Antagonistic potency values were converted to apparent pKB values using a modified Cheng-Prusoff correction. Apparent pKB=−log IC50/1+[conc agonist/EC50]. Data are expressed as mean±S.E.M, the designation of NT means not tested.

Chain of human orexin 2 receptor (O43614 whole entry): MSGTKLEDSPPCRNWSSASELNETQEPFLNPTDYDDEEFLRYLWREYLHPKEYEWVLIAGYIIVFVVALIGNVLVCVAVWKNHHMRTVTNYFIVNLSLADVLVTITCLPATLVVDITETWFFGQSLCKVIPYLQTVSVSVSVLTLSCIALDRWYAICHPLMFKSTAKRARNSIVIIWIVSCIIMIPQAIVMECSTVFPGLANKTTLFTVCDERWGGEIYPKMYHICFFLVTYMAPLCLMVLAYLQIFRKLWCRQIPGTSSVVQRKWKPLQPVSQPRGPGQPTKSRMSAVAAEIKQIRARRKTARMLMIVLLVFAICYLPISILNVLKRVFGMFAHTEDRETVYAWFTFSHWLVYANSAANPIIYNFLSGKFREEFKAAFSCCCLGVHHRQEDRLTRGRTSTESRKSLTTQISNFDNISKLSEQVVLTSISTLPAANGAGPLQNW

In the case of `COc1cc(N2CC3CN(C(=O)c4c(F)cccc4-n4nccn4)CC3C2)nc(N(C)C)n1` (stereo not shown) [Example 1, 4-[5-{[2-Fluoro-6-(2H-1,2,3-triazol-2-yl)phenyl]carbonyl}hexahydropyrrolo[3,4-c]pyrrol-2(1H)-yl]-6-methoxy-N,N-dimethylpyrimidin-2-amine], the Kb amounted to 10 nM.
For `CN(C)c1cc(N2CC3CN(C(=O)c4ccccc4-n4nccn4)CC3C2)nc(C(F)(F)F)n1` (stereo not shown) [Example 2, N,N-Dimethyl-6-[5-{[2-(2H-1,2,3-triazol-2-yl)phenyl]carbonyl}hexahydropyrrolo[3,4-c]pyrrol-2(1H)-yl]-2-(trifluoromethyl)pyrimidin-4-amine], the Kb amounted to 16 nM.
In the case of `CN(C)c1cc(N2CC3CN(C(=O)c4c(F)cccc4-n4nccn4)CC3C2)nc(C(F)(F)F)n1` (stereo not shown) [Example 3, 6-[5-{[2-Fluoro-6-(2H-1,2,3-triazol-2-yl)phenyl]carbonyl}hexahydropyrrolo[3,4-c]pyrrol-2(1H)-yl]-N,N-dimethyl-2-(trifluoromethyl)pyrimidin-4-amine], the Kb was 14 nM.
On to `COc1cc(N2CC3CN(C(=O)c4cc(F)ccc4-n4nccn4)CC3C2)nc(N(C)C)n1` (stereo not shown) [Example 4, 4-[5-{[5-Fluoro-2-(2H-1,2,3-triazol-2-yl)phenyl]carbonyl}hexahydropyrrolo[3,4-c]pyrrol-2(1H)-yl]-6-methoxy-N,N-dimethylpyrimidin-2-amine], for which the Kb worked out at 32 nM.
Turning to `COc1cc(N2CC3CN(C(=O)c4ccccc4-n4nccn4)CC3C2)nc(N(C)C)n1` (stereo not shown) [Example 5, 4-Methoxy-N,N-dimethyl-6-[5-{[2-(2H-1,2,3-triazol-2-yl)phenyl]carbonyl}hexahydropyrrolo-[3,4-c]pyrrol-2(1H)-yl]pyrimidin-2-amine], the Kb was found to be 5 nM.
As for `CN(C)c1cc(N2CC3CN(C(=O)c4ccc(F)cc4-n4nccn4)CC3C2)nc(C(F)(F)F)n1` (stereo not shown) [Example 6, 6-[5-{[4-Fluoro-2-(2H-1,2,3-triazol-2-yl)phenyl]carbonyl}hexahydropyrrolo[3,4-c]pyrrol-2(1H)-yl]-N,N-dimethyl-2-(trifluoromethyl)pyrimidin-4-amine], the figure is 25 nM.
Take `COc1cc(N2CC3CN(C(=O)c4ccc(F)cc4-n4nccn4)CC3C2)nc(N(C)C)n1` (stereo not shown) [Example 7, 4-[5-{[4-Fluoro-2-(2H-1,2,3-triazol-2-yl)phenyl]carbonyl}hexahydropyrrolo[3,4-c]pyrrol-2(1H)-yl]-6-methoxy-N,N-dimethylpyrimidin-2-amine]: the Kb is 13 nM.
As to `CN(C)c1cc(N2CC3CN(C(=O)c4cc(F)ccc4-n4nccn4)CC3C2)nc(C(F)(F)F)n1` (stereo not shown) [Example 9, 6-[5-{[5-Fluoro-2-(2H-1,2,3-triazol-2-yl)phenyl]carbonyl}hexahydropyrrolo[3,4-c]pyrrol-2(1H)-yl]-N,N-dimethyl-2-(trifluoromethyl)pyrimidin-4-amine], the Kb was 56 nM.
To `Cc1cc(C)nc(N2CC3CN(C(=O)c4sccc4-c4ccccc4)CC3C2)n1` (stereo not shown) [Example 12, 2-(4,6-Dimethylpyrimidin-2-yl)-5-[(3-phenylthiophen-2-yl)carbonyl]octahydropyrrolo[3,4-c]pyrrole] belongs 32 nM.
To `Cc1cc(C)nc(N2CC3CN(C(=O)c4occc4-c4ccccc4)CC3C2)n1` (stereo not shown) [Example 13, 2-(4,6-Dimethylpyrimidin-2-yl)-5-[(3-phenylfuran-2-yl)carbonyl]octahydropyrrolo[3,4-c]pyrrole] belongs 79 nM; to `Cc1cc(C)nc(N2CC3CN(C(=O)c4ccccc4-c4nnc[nH]4)CC3C2)n1` (stereo not shown) [Example 14, 2-(4,6-Dimethylpyrimidin-2-yl)-5-{[2-(1H-1,2,4-triazol-5-yl)phenyl]carbonyl}octahydro-pyrrolo[3,4-c]pyrrole], 9 nM.
In the case of `O=C(c1ccccc1-c1cccs1)N1CC2CN(c3cnc4ccccc4n3)CC2C1` (stereo not shown) [Example 19, 2-{5-[(2-Thiophen-2-ylphenyl)carbonyl]hexahydropyrrolo[3,4-c]pyrrol-2(1H)-yl}quinoxaline], the Kb is 31 nM.
Take `Cc1ccc2ccccc2c1C(=O)N1CC2CN(c3cnc4ccccc4n3)CC2C1` (stereo not shown) [Example 20, 2-{5-[(2-Methylnaphthalen-1-yl)carbonyl]hexahydropyrrolo[3,4-c]pyrrol-2(1H)-yl}quinoxaline]: the Kb is 129 nM.
For `O=C(c1ccccc1-c1cccs1)N1CC2CN(c3nccc(-c4ccccc4)n3)CC2C1` (stereo not shown) [Example 22, 2-(4-Phenylpyrimidin-2-yl)-5-[(2-thiophen-2-ylphenyl)carbonyl]octahydro-pyrrolo[3,4-c]pyrrole], the Kb was 158 nM.
Take `Cc1ccc2ccccc2c1C(=O)N1CC2CN(c3nccc(-c4ccccc4)n3)CC2C1` (stereo not shown) [Example 25, 2-[(2-Methylnaphthalen-1-yl)carbonyl]-5-(4-phenylpyrimidin-2-yl)octahydropyrrolo[3,4-c]pyrrole]: the Kb was 99 nM.
As for `Cc1ccnc(N2CC3CN(C(=O)c4ccccc4-c4cccs4)CC3C2)n1` (stereo not shown) [Example 32, 2-(4-Methylpyrimidin-2-yl)-5-[(2-thiophen-2-ylphenyl)carbonyl]octahydro-pyrrolo[3,4-c]pyrrole], the Kb stood at 32 nM.
Consider `Cc1cc(C)nc(N2CC3CN(C(=O)c4ccccc4-c4cccs4)CC3C2)n1` (stereo not shown) [Example 43, 2-(4,6-Dimethylpyrimidin-2-yl)-5-[(2-thiophen-2-ylphenyl)carbonyl]octahydro-pyrrolo[3,4-c]pyrrole], for which the Kb is 10 nM.
For the compound `Cc1cc(C)nc(N2CC3CN(C(=O)c4ccccc4-c4ccccc4)CC3C2)n1` (stereo not shown) [Example 44, 2-(Biphenyl-2-ylcarbonyl)-5-(4,6-dimethylpyrimidin-2-yl)octahydropyrrolo[3,4-c]pyrrole], the Kb stood at 63 nM.
Take `COc1ccnc(N2CC3CN(C(=O)c4ccccc4-c4cccs4)CC3C2)n1` (stereo not shown) [Example 45, 2-(4-Methoxypyrimidin-2-yl)-5-[(2-thiophen-2-ylphenyl)carbonyl]octahydro-pyrrolo[3,4-c]pyrrole]: the Kb amounted to 10 nM.
In the case of `Cc1cc(C)nc(N2CC3CN(C(=O)c4c(C)ccc5ccccc45)CC3C2)n1` (stereo not shown) [Example 47, 2-(4,6-Dimethylpyrimidin-2-yl)-5-[(2-methylnaphthalen-1-yl)carbonyl]octahydro-pyrrolo[3,4-c]pyrrole], the Kb was 32 nM.
For the compound `COc1ccnc(N2CC3CN(C(=O)c4c(C)ccc5ccccc45)CC3C2)n1` (stereo not shown) [Example 49, 2-(4-Methoxypyrimidin-2-yl)-5-[(2-methylnaphthalen-1-yl)carbonyl]octahydro-pyrrolo[3,4-c]pyrrole], the Kb stood at 32 nM.
Turning to `Cc1cc(C)nc(N2CC3CN(C(=O)c4ccccc4-c4cccc(F)c4)CC3C2)n1` (stereo not shown) [Example 52, 2-(4,6-Dimethylpyrimidin-2-yl)-5-[(3′-fluorobiphenyl-2-yl)carbonyl]octahydro-pyrrolo[3,4-c]pyrrole], the Kb was determined as 50 nM.
As for `CCOc1ccc2ccccc2c1C(=O)N1CC2CN(c3nccc(OC)n3)CC2C1` (stereo not shown) [Example 56, 2-[(2-Ethoxynaphthalen-1-yl)carbonyl]-5-(4-methoxypyrimidin-2-yl)octahydropyrrolo[3,4-c]pyrrole], the figure is 40 nM; as for `O=C(c1ccccc1-c1cccs1)N1CC2CN(c3nccc(-c4cn[nH]c4)n3)CC2C1` (stereo not shown) [Example 62, 2-[4-(1H-Pyrazol-4-yl)pyrimidin-2-yl]-5-[(2-thiophen-2-ylphenyl)carbonyl]octahydro-pyrrolo[3,4-c]pyrrole], 40 nM; as for `Cc1cnc(C)c(N2CC3CN(C(=O)c4ccccc4-c4cccs4)CC3C2)n1` (stereo not shown) [Example 63, 2-(3,6-Dimethylpyrazin-2-yl)-5-[(2-thiophen-2-ylphenyl)carbonyl]octahydro-pyrrolo[3,4-c]pyrrole], 20 nM.
Turning to `COc1cc(OC)nc(N2CC3CN(C(=O)c4c(F)cccc4-c4ncccn4)CC3C2)n1` (stereo not shown) [Example 68, 2-(4,6-Dimethoxypyrimidin-2-yl)-5-[(2-fluoro-6-pyrimidin-2-ylphenyl)carbonyl]octahydropyrrolo[3,4-c]pyrrole], the Kb turned out to be 16 nM.
On to `Cc1cc(C)nc(N2CC3CN(C(=O)c4ccccc4-c4ccccn4)CC3C2)n1` (stereo not shown) [Example 69, 2-(4,6-Dimethylpyrimidin-2-yl)-5-[(2-pyridin-2-ylphenyl)carbonyl]octahydro-pyrrolo[3,4-c]pyrrole], for which the Kb is 8 nM.
Turning to `COc1cc(OC)nc(N2CC3CN(C(=O)c4ccccc4-c4ccccn4)CC3C2)n1` (stereo not shown) [Example 70, 2-(4,6-Dimethoxypyrimidin-2-yl)-5-[(2-pyridin-2-ylphenyl)carbonyl]octahydro-pyrrolo[3,4-c]pyrrole], the Kb came to 40 nM.
Regarding `Cc1cc(C)nc(N2CC3CN(C(=O)c4c(F)cccc4-c4ncccn4)CC3C2)n1` (stereo not shown) [Example 73, 2-(4,6-Dimethylpyrimidin-2-yl)-5-[(2-fluoro-6-pyrimidin-2-ylphenyl)carbonyl]octahydropyrrolo[3,4-c]pyrrole], the Kb was 5 nM.
As for `Cc1cc(C)nc(N2CC3CN(C(=O)c4cc(F)ccc4-c4ncccn4)CC3C2)n1` (stereo not shown) [Example 74, 2-(4,6-Dimethylpyrimidin-2-yl)-5-[(5-fluoro-2-pyrimidin-2-ylphenyl)carbonyl]octahydropyrrolo[3,4-c]pyrrole], the Kb worked out at 10 nM.
As for `CCOc1ccc2ccccc2c1C(=O)N1CC2CN(c3nc(C)cc(C)n3)CC2C1` (stereo not shown) [Example 77, 2-(4,6-Dimethylpyrimidin-2-yl)-5-[(2-ethoxynaphthalen-1-yl)carbonyl]octahydro-pyrrolo[3,4-c]pyrrole], the figure is 16 nM.
